{
  "source": "PubChem BioAssay (NCI)",
  "assay_in_all_cases": "NCI tumour cell line growth inhibition, 48 h",
  "key": {"HT29 colon": {"tested_on": "HT29 colon"}, "DLD-1 colon": {"tested_on": "DLD-1 colon"}, "K-562 leukemia": {"tested_on": "K-562 leukemia"}, "DU-145 prostate": {"tested_on": "DU-145 prostate"}, "KM20L2 colon": {"tested_on": "KM20L2 colon"}, "XF 498 CNS": {"tested_on": "XF 498 CNS"}, "SR leukemia": {"tested_on": "SR leukemia"}, "NCI-H23 lung": {"tested_on": "NCI-H23 lung"}, "ACHN renal": {"tested_on": "ACHN renal"}, "CAKI-1 renal": {"tested_on": "CAKI-1 renal"}, "OVCAR-5 ovarian": {"tested_on": "OVCAR-5 ovarian"}, "PC-3 prostate": {"tested_on": "PC-3 prostate"}, "SK-MEL-2 melanoma": {"tested_on": "SK-MEL-2 melanoma"}, "MDA-N": {"tested_on": "MDA-N"}, "MCF7 breast": {"tested_on": "MCF7 breast"}, "MDA-MB-435": {"tested_on": "MDA-MB-435"}, "M19-MEL melanoma": {"tested_on": "M19-MEL melanoma"}, "MDA-MB-231 breast": {"tested_on": "MDA-MB-231 breast"}, "786-0 renal": {"tested_on": "786-0 renal"}, "HS 578T breast": {"tested_on": "HS 578T breast"}, "HCT-15 colon": {"tested_on": "HCT-15 colon"}, "SF-539 CNS": {"tested_on": "SF-539 CNS"}, "SK-OV-3 ovarian": {"tested_on": "SK-OV-3 ovarian"}, "CCRF-CEM leukemia": {"tested_on": "CCRF-CEM leukemia"}, "COLO 205 colon": {"tested_on": "COLO 205 colon"}, "P388/ADR leukemia": {"tested_on": "P388/ADR leukemia"}, "HCC-2998 colon": {"tested_on": "HCC-2998 colon"}, "SF-295 CNS": {"tested_on": "SF-295 CNS"}, "DMS 114 small cell lung": {"tested_on": "DMS 114 small cell lung"}, "T-47D breast": {"tested_on": "T-47D breast"}, "OVCAR-4 ovarian": {"tested_on": "OVCAR-4 ovarian"}, "DMS 273 small cell lung": {"tested_on": "DMS 273 small cell lung"}, "HOP-18 NSCLC": {"tested_on": "HOP-18 NSCLC"}, "A498 renal": {"tested_on": "A498 renal"}, "U251 CNS": {"tested_on": "U251 CNS"}, "NCI-H460 lung": {"tested_on": "NCI-H460 lung"}, "NCI-H226 lung": {"tested_on": "NCI-H226 lung"}, "BT-549 breast": {"tested_on": "BT-549 breast"}, "LOX IMVI melanoma": {"tested_on": "LOX IMVI melanoma"}, "SNB-75 CNS": {"tested_on": "SNB-75 CNS"}, "SNB-19 CNS": {"tested_on": "SNB-19 CNS"}, "SW-620 colon": {"tested_on": "SW-620 colon"}, "P388 leukemia": {"tested_on": "P388 leukemia"}, "OVCAR-3 ovarian": {"tested_on": "OVCAR-3 ovarian"}, "KM12 colon": {"tested_on": "KM12 colon"}, "HCT-116 colon": {"tested_on": "HCT-116 colon"}, "HL-60(TB) leukemia": {"tested_on": "HL-60(TB) leukemia"}, "M14 melanoma": {"tested_on": "M14 melanoma"}, "SK-MEL-5 melanoma": {"tested_on": "SK-MEL-5 melanoma"}, "OVCAR-8 ovarian": {"tested_on": "OVCAR-8 ovarian"}, "MALME-3M melanoma": {"tested_on": "MALME-3M melanoma"}, "EKVX NSCLC": {"tested_on": "EKVX NSCLC"}, "TK-10 renal": {"tested_on": "TK-10 renal"}, "SN12C renal": {"tested_on": "SN12C renal"}, "UACC-62 melanoma": {"tested_on": "UACC-62 melanoma"}, "HOP-92 NSCLC": {"tested_on": "HOP-92 NSCLC"}, "IGROV1 ovarian": {"tested_on": "IGROV1 ovarian"}, "UACC-257 melanoma": {"tested_on": "UACC-257 melanoma"}, "SK-MEL-28 melanoma": {"tested_on": "SK-MEL-28 melanoma"}, "HOP-62 NSCLC": {"tested_on": "HOP-62 NSCLC"}, "SF-268 CNS": {"tested_on": "SF-268 CNS"}, "NCI-H522 lung": {"tested_on": "NCI-H522 lung"}, "NCI/ADR-RES ovarian": {"tested_on": "NCI/ADR-RES ovarian"}, "MOLT-4 leukemia": {"tested_on": "MOLT-4 leukemia"}, "RPMI-8226 leukemia": {"tested_on": "RPMI-8226 leukemia"}, "A549 NSCLC": {"tested_on": "A549 NSCLC"}, "SN12K1 renal": {"tested_on": "SN12K1 renal"}, "RXF 393 renal": {"tested_on": "RXF 393 renal"}, "UO-31 renal": {"tested_on": "UO-31 renal"}},
  "note": "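Results reflect a 48-hour exposure of cells in 96-well plates to compound at five concentrations. The concentration for full growth arrest is given as TGI.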",
  "data": [
    {"compound": "CCOC(=O)C(N)CSC(=O)NC", "note": "(centres undefined)", "values": [
      {"measurement": "TGI", "setting": "HT29 colon", "result": 399, "unit": "µM"},
      {"measurement": "TGI", "setting": "DLD-1 colon", "result": 474, "unit": "µM"},
      {"measurement": "TGI", "setting": "K-562 leukemia", "result": 284, "unit": "µM"},
      {"measurement": "TGI", "setting": "DU-145 prostate", "result": 597, "unit": "µM"},
      {"measurement": "TGI", "setting": "KM20L2 colon", "result": 507, "unit": "µM"},
      {"measurement": "TGI", "setting": "XF 498 CNS", "result": 289, "unit": "µM"},
      {"measurement": "TGI", "setting": "SR leukemia", "result": 158, "unit": "µM"},
      {"measurement": "TGI", "setting": "NCI-H23 lung", "result": 469, "unit": "µM"},
      {"measurement": "TGI", "setting": "ACHN renal", "result": 510, "unit": "µM"},
      {"measurement": "TGI", "setting": "CAKI-1 renal", "result": 461, "unit": "µM"},
      {"measurement": "TGI", "setting": "OVCAR-5 ovarian", "result": 689, "unit": "µM"},
      {"measurement": "TGI", "setting": "PC-3 prostate", "result": 455, "unit": "µM"},
      {"measurement": "TGI", "setting": "SK-MEL-2 melanoma", "result": 276, "unit": "µM"},
      {"measurement": "TGI", "setting": "MDA-N", "result": 116, "unit": "µM"},
      {"measurement": "TGI", "setting": "MCF7 breast", "result": 425, "unit": "µM"},
      {"measurement": "TGI", "setting": "MDA-MB-435", "result": 98.4, "unit": "µM"},
      {"measurement": "TGI", "setting": "M19-MEL melanoma", "result": 157, "unit": "µM"},
      {"measurement": "TGI", "setting": "MDA-MB-231 breast", "result": 340, "unit": "µM"},
      {"measurement": "TGI", "setting": "786-0 renal", "result": 201, "unit": "µM"},
      {"measurement": "TGI", "setting": "HS 578T breast", "result": 782, "unit": "µM"},
      {"measurement": "TGI", "setting": "HCT-15 colon", "result": 312, "unit": "µM"},
      {"measurement": "TGI", "setting": "SF-539 CNS", "result": 231, "unit": "µM"},
      {"measurement": "TGI", "setting": "SK-OV-3 ovarian", "result": 621, "unit": "µM"},
      {"measurement": "TGI", "setting": "CCRF-CEM leukemia", "result": 147, "unit": "µM"},
      {"measurement": "TGI", "setting": "COLO 205 colon", "result": 360, "unit": "µM"},
      {"measurement": "TGI", "setting": "P388/ADR leukemia", "result": 104, "unit": "µM"},
      {"measurement": "TGI", "setting": "HCC-2998 colon", "result": 644, "unit": "µM"},
      {"measurement": "TGI", "setting": "SF-295 CNS", "result": 592, "unit": "µM"},
      {"measurement": "TGI", "setting": "DMS 114 small cell lung", "result": 147, "unit": "µM"},
      {"measurement": "TGI", "setting": "T-47D breast", "result": 773, "unit": "µM"},
      {"measurement": "TGI", "setting": "OVCAR-4 ovarian", "result": 481, "unit": "µM"},
      {"measurement": "TGI", "setting": "DMS 273 small cell lung", "result": 375, "unit": "µM"},
      {"measurement": "TGI", "setting": "HOP-18 NSCLC", "result": 686, "unit": "µM"},
      {"measurement": "TGI", "setting": "A498 renal", "result": 594, "unit": "µM"},
      {"measurement": "TGI", "setting": "U251 CNS", "result": 347, "unit": "µM"},
      {"measurement": "TGI", "setting": "NCI-H460 lung", "result": 397, "unit": "µM"},
      {"measurement": "TGI", "setting": "NCI-H226 lung", "result": 681, "unit": "µM"},
      {"measurement": "TGI", "setting": "BT-549 breast", "result": 346, "unit": "µM"},
      {"measurement": "TGI", "setting": "LOX IMVI melanoma", "result": 133, "unit": "µM"},
      {"measurement": "TGI", "setting": "SNB-75 CNS", "result": 598, "unit": "µM"},
      {"measurement": "TGI", "setting": "SNB-19 CNS", "result": 600, "unit": "µM"},
      {"measurement": "TGI", "setting": "SW-620 colon", "result": 308, "unit": "µM"},
      {"measurement": "TGI", "setting": "P388 leukemia", "result": 102, "unit": "µM"},
      {"measurement": "TGI", "setting": "OVCAR-3 ovarian", "result": 290, "unit": "µM"},
      {"measurement": "TGI", "setting": "KM12 colon", "result": 460, "unit": "µM"},
      {"measurement": "TGI", "setting": "HCT-116 colon", "result": 321, "unit": "µM"},
      {"measurement": "TGI", "setting": "HL-60(TB) leukemia", "result": 272, "unit": "µM"},
      {"measurement": "TGI", "setting": "M14 melanoma", "result": 275, "unit": "µM"},
      {"measurement": "TGI", "setting": "SK-MEL-5 melanoma", "result": 393, "unit": "µM"},
      {"measurement": "TGI", "setting": "OVCAR-8 ovarian", "result": 314, "unit": "µM"},
      {"measurement": "TGI", "setting": "MALME-3M melanoma", "result": 306, "unit": "µM"},
      {"measurement": "TGI", "setting": "EKVX NSCLC", "result": 546, "unit": "µM"},
      {"measurement": "TGI", "setting": "TK-10 renal", "result": 566, "unit": "µM"},
      {"measurement": "TGI", "setting": "SN12C renal", "result": 213, "unit": "µM"},
      {"measurement": "TGI", "setting": "UACC-62 melanoma", "result": 304, "unit": "µM"},
      {"measurement": "TGI", "setting": "HOP-92 NSCLC", "result": 341, "unit": "µM"},
      {"measurement": "TGI", "setting": "IGROV1 ovarian", "result": 481, "unit": "µM"},
      {"measurement": "TGI", "setting": "UACC-257 melanoma", "result": 535, "unit": "µM"},
      {"measurement": "TGI", "setting": "SK-MEL-28 melanoma", "result": 440, "unit": "µM"},
      {"measurement": "TGI", "setting": "HOP-62 NSCLC", "result": 567, "unit": "µM"},
      {"measurement": "TGI", "setting": "SF-268 CNS", "result": 443, "unit": "µM"},
      {"measurement": "TGI", "setting": "NCI-H522 lung", "result": 472, "unit": "µM"},
      {"measurement": "TGI", "setting": "NCI/ADR-RES ovarian", "result": 362, "unit": "µM"},
      {"measurement": "TGI", "setting": "MOLT-4 leukemia", "result": 215, "unit": "µM"},
      {"measurement": "TGI", "setting": "RPMI-8226 leukemia", "result": 214, "unit": "µM"},
      {"measurement": "TGI", "setting": "A549 NSCLC", "result": 836, "unit": "µM"},
      {"measurement": "TGI", "setting": "SN12K1 renal", "result": 112, "unit": "µM"},
      {"measurement": "TGI", "setting": "RXF 393 renal", "result": 337, "unit": "µM"},
      {"measurement": "TGI", "setting": "UO-31 renal", "result": 602, "unit": "µM"}
    ]}
  ]
}
